Where a name gives a salt, the structure may show the parent alone. Read-outs that look alike come from different tables or passages of the source.
Tests used:
[1] = test system: mouse leukemia L1210; settings: in vitro, compared with actinomycin D and adriamycin; cited from earlier work
[2] = test system: L1210 leukemia; settings: in vivo; cited from earlier work
[3] = test system: P388 leukemic cells; settings: in vivo; cited from earlier work
[4] = test system: LX-1 lung xenograft; settings: in vivo; cited from earlier work
[5] = test system: Gram-negative bacteria; settings: cited from earlier work
[6] = test system: P388 Lymph. Leukemia; experiment: in vivo antitumor activity against P388 leukemia; design: species or system CD2F1 mice; settings: for % T/C / % T/C: toxicity: i.p.
Protocol: The antitumor activity is determined by contracted accessary testing services according to the National Cancer Institute (NCI) guidelines for natural products (Geran et al. protocols for Screening Chemical Agents and Natural Products Against Animal Tumors and other Biological Systems. Cancer Chemother. Rep. part 3, 3:7-61, 1972; Schepartz: Antitumor Screening Procedures of the National Cancer Institute. Japan J. Antibiotics 30 (Supl): 35-40, 1977.)
Alkali metal salt of FMA is tested in vivo against P338 leukemia. The test is carried out using male CD2F1 mice (wt.=18 g±3 g) in one experiment and female mice (wt, 17 g±3.0 gm) in another experiment. […]
*T/C is the ratio expressed in percent of the median survival time of the
treated group divided by the median survival time of the control group.
NCI criteria of positive (moderate) activity in P388 Leukemia is indicate
by a T/C value of 120%. A T/C value of ≥ 175% is indicative of
**DMSO = Dimethylsulfoxide; i.p = intraperitoneal route of injection.
Potassium salt of fredericamycin A was dissolved in water only.

[7] = test system: fungi; settings: cited from earlier work
[8] = test system: MX-1 breast xenograft; settings: in vivo; cited from earlier work
[9] = test system: mouse leukemia P388; settings: cited from earlier work
[10] = test system: Gram-positive bacteria; settings: cited from earlier work
[11] = test system: C38 colon tumor; settings: in vivo; cited from earlier work
[12] = general; precluded further toxicological and pharmacological studies; cited from earlier work
[13] = solubility; format: physicochemical; settings: for solubility: water
Protocol: The potassium salt of fredericamycin A (NSC #601617) is soluble in water with hand shaking for 1 minute, followed by vortexing for 3 minutes. The solubility is about 1.0 mg/ml and gives a transparent blue solution, pH 8.65 with no residue upon membrane filtration (0.22μ, HA, Millipore Products).
Fredericamycin A (15 mg, 0.0278 mmols) is treated with NaOH solution, 1:3 mols (7.65 mls; 0.0109N, degased previously and cooled to 0° C.) in pyridine solution at 0° C. (2.5 ml, degased) under N2 atmosphere. Reaction is carried out by stirring magnetically for 60 minutes under N2 atmosphere. (40 minutes at 0° C. and 20 minutes at 15° C.). The progress of reaction is followed by TLC, HPLC (of hydrolysed product of the Rx mixture) and UV. The resultant blue-green clear reaction mixture is frozen (-70° C.) and lyophilized (48 hrs) until a solid is obtained. […] It is soluble in water (0.5 mg/ml) with hand shake and sonication (15 minutes). […] TLC and HPLC (after hydrolysis) show single spot and single peak respectively showing that the product is pure.
The first indication of the salt formation is observed by solubility studies in water.

[14] = test system: CD8F mouse mammary tumor; settings: in vivo; cited from earlier work
[15] = test system: Lewis lung carcinoma; settings: in vivo; cited from earlier work
[16] = test system: B16 melanoma; settings: in vivo; cited from earlier work
[17] = hygroscopicity; format: physicochemical
[18] = pH of aqueous solution; format: physicochemical
[19] = stability; format: physicochemical
[20] = test system: P388 ascites murine leukemia; experiment: in vitro cytotoxicity, Microculture Tetrazolium Assay (MTA), P388; format: cell-based; settings: P388, 5 days culture, FIG. 5
Description: The assay used for determining in vitro cytotoxic activity of alkali metal salt of FMA is known as "Microculture Tetrazolium Assay" (MTA) developed by the in vitro Cancer Pharmacology R & D Laboratory at NCI-FCRF. The method utilized is a modification of Procedure by T. Mosmann et al., (J. Immunol. Meth. 65:55, 1983 and 70:257, 1984) described by M. C. Alley et al (Proc. AACR. 27:389, 1986). The testing of alkali metal salt of FMA is done using P388 acites murine leukemia as the test system at a inoculation density of about 1000 cells per well and culture duration of 5 days, with various concentration levels of alkali metal salt of FMA vs fredericamycin A. The concentration range could be from 0.1 μg to 10 μg per ml. The results are recorded as percent of control O.D. for each sample dilution.

[21] = test system: fungi (Penicillium notatum); experiment: antimicrobial activity, disc method, fungi; format: cell-based; settings: concentration 0.025 to 5 μg/ml
Protocol: (§1) Protocol for determining antimicrobial activity against Bacillus subtilis and Penicillium notatum
(§2) These were performed by Disc method, using standard assay procedures and the respective microorganism in each case. 15 μl of each sample in DMSO-H H2 O (1:1) is pipetted on to separate 0.25" absorbent paper disc and the assay is performed following routine techniques well known in the art. Zone sizes are read after incubation overnight (Bacillus subtilis) and after 4 days of incubation (Penicillium notatum) at various concentrations.

[22] = solubility; format: physicochemical
[23] = test system: gram positive bacteria (Bacillus subtilis); experiment: antimicrobial activity, disc method, bacteria; format: cell-based; settings: concentration 0.025 to 5 μg/ml
Protocol: as §1, §2

C/C=C/C=C/c1cc2cc3c(c(O)c2c(=O)[nH]1)C1(CC3)C(=O)c2c(O)c3c(c(O)c2C1=O)C(=O)C(OC)=CC3=O (stereo not drawn) [fredericamycin A]
ED50 against L1210 [1]: compared closely to the reported values for actinomycin D and adriamycin
activity against L1210 leukemia [2]: ineffective
extending the life span of mice inoculated with P388 [3]: effective
activity against LX-1 lung xenograft [4]: ineffective
activity against Gram-negative bacteria [5]: no activity
% T/C ([6]; 0.06 mg/kg, DMSO): 122%
% T/C ([6]; 0.12 mg/kg, DMSO): 146%
% T/C ([6]; 0.25 mg/kg, DMSO): 134%
% T/C ([6]; 0.50 mg/kg, DMSO): 200%
% T/C ([6]; 1.00 mg/kg, DMSO): 160%
% T/C: toxicity ([6]; >1.00 mg/kg, DMSO): Toxic
activity against fungi [7]: good activity
activity against MX-1 breast xenograft [8]: ineffective
cytotoxicity ([9]; in general, cells not specified): very cytotoxic
ED50 against P388 ([9]; in vitro, compared with actinomycin D and adriamycin): compared closely to the reported values for actinomycin D and adriamycin
activity against Gram-positive bacteria [10]: good activity
activity against C38 colon tumor [11]: ineffective
solubility [12]: poor solubility
solubility in water, in words [13]: almost insoluble
solubility in water, in words ([13]; listed as FMA): virtually insoluble
reducing the median tumor weight [14]: effective
activity against Lewis lung carcinoma [15]: ineffective
activity against B16 melanoma [16]: marginal activity

C/C=C/C=C/c1cc2cc3c(c(O)c2c(=O)[nH]1)C1(CC3)C(=O)c2c(O)c3c(c(O)c2C1=O)C(=O)C(OC)=CC3=O (stereo not drawn) [Na-FMA, sodium salt of fredericamycin A]
hygroscopicity [17]: highly hygroscopic
pH (water) ([18]; 0.5 mg/ml in water): 9.2±0.5
stability of aqueous solution on longer standing ([19]; water, room temperature): hydrolyzing back to fredericamycin A
solubility ([13]; hand shake and sonication (15 minutes)): 500 µg/mL

C/C=C/C=C/c1cc2cc3c(c(O)c2c(=O)[nH]1)C1(CC3)C(=O)c2c(O)c3c(c(O)c2C1=O)C(=O)C(OC)=CC3=O (stereo not drawn) [KFMA, potassium salt of fredericamycin A]
in vitro cytotoxic activity as compared to that of FMA [20]: equal or better
T/C value ([6]; 1 mg/kg level): 178%
% T/C ([6]; Expt #1, 0.125 mg/kg, water): 119%
% T/C ([6]; Expt #1, 0.25 mg/kg, water): 119%
% T/C ([6]; Expt #1, 0.50 mg/kg, water): 153%
% T/C ([6]; Expt #1, 1.00 mg/kg, water): 178%
% T/C: toxicity ([6]; Expt #1, 2.00 mg/kg, water): Toxic
% T/C ([6]; Expt #1, .063 mg/kg, water): 110%
% T/C ([6]; Expt #2, 0.125 mg/kg, water): 120%
% T/C ([6]; Expt #2, 0.25 mg/kg, water): 132%
% T/C ([6]; Expt #2, 0.50 mg/kg, water): 160%
% T/C ([6]; Expt #2, 1.00 mg/kg, water): 175%
% T/C ([6]; Expt #2, .063 mg/kg, water): 112%
activity against P388 leukemia, in words ([6]; all experiments performed): significant activity
differences between male and female mice ([6]; male vs female mice): no differences observed
pH (H2O) ([18]; Table 1): 8.9 ± 0.2
pH of aqueous solution ([18]; about 1.0 mg/ml in water): 8.65
zone size [21]: 9.5 mm
stability of DMSO solution (anhydrous) ([19]; 0° C./dark): several days
stability of anhydrous salt ([19]; anhydrous, room temp.): stable
stability of anhydrous salt, duration in words ([19]; anhydrous, room temperature): stable for extended period of time
temperature safely heated to with no decomposition ([19]; high vacuum, 4 hrs): up to 60 °C
hydrolysis to fredericamycin A ([19]; in presence of moisture, acid): Easily hydrolysable
stability of DMSO solution (anhydrous) ([19]; room temp, 4 hrs): fairly stable
storage stability ([19]; sealed under nitrogen, anhydrous, amber container, 0° C. over silica gel): stable for several months
stability of aqueous solution ([19]; water, about 1.0 mg/ml, room temperature): stable for almost an hour
solubility in chloroform-methanol-acetic acid (87:3:3) and methanol [22]: Soluble
solubility in dimethylacetamide, dimethylformamide, pyridine [22]: Readily Soluble
solubility in ethylacetate, acetonitrile and chloroform [22]: Sparingly soluble
solubility in hexanes, ether, acetone, benzene and carbon tetra chloride [22]: Insoluble
solubility in dimethyl sulfoxide ([22]; Readily Soluble): 8 mg/1.5 ml
solubility ([22]; dmso-saline 5:95, organic solvent or mixture, read-out: solubility in dimethylsulfoxide-saline (5:95)): 1000 µg/mL
solubility ([22]; dmso-saline 10:90, organic solvent or mixture, solution is transparent blue, read-out: solubility in dimethylsulfoxide-saline (10:90)): 1000 µg/mL
solubility ([22]; dmso-water 1:1, organic solvent or mixture, Readily Soluble, read-out: solubility in dimethylsulfoxide-water (1:1)): 3000 µg/mL
solubility ([22]; dmso-water 5:95, organic solvent or mixture, read-out: solubility in dimethylsulfoxide-water (5:95)): 1500 µg/mL
solubility ([22]; water, hand shaking 1 minute, vortexing 3 minutes, read-out: solubility in water): ~1000 µg/mL
solubility ([13]; Table 1): 1000 µg/mL
solubility ([13]; solubility studies in water): ~1000 µg/mL
zone size [23]: 9.5 mm
